The subject of test [1] is mice fed a Gubra amylin NASH (GAN) diet. The experiment in a line: Biological effects in GAN diet-induced NASH mice. The test is classed as in vivo. The note with it: after two weeks. As to the method: NASH was induced in mice by feeding mice a Gubra amylin NASH (GAN) diet as described in Boland et al. World J Gastroenterol. 2019, 25(33): 4904-4920. One week prior to administration of a first dose of compounds, the mice were weighed and randomized, and their food intake was measured. Mice were randomly assigned to dosing groups, with twelve mice per group. […] Compound dose titration (nmol/kg): 0.6 (day 0), 1.2 (day 1), 2.4 (day 2), 4.8 (day 3), 4.8 (day 4), 12 (day 5), 30.0 (from day 6).
After two weeks, animals were sacrificed. Plasma enzymes (P-ALT (alanine aminotransferase) and P-AST (aspartate aminotransferase)), total plasma triglycerides, and total plasma cholesterol were measured, and terminal necropsy of each liver was carried out, determining relative liver weight as a percentage of body weight, assaying total liver biochemistry including total liver triglycerides, plasma insulin and total liver cholesterol, as well as histological evaluation of Galectin-3, and alpha-smooth muscle actin.

The target of the next test is GLP-1 receptor (Homo sapiens, UniProt P43220). The test is described as follows: HSA modulated binding assay, GLP-1 receptor. The following applies: binding with 2% HSA to binding with 0% HSA.
The target of the next test is T1, GIP receptor (Homo sapiens, UniProt P48546).
T1 sequence (P48546 22-466): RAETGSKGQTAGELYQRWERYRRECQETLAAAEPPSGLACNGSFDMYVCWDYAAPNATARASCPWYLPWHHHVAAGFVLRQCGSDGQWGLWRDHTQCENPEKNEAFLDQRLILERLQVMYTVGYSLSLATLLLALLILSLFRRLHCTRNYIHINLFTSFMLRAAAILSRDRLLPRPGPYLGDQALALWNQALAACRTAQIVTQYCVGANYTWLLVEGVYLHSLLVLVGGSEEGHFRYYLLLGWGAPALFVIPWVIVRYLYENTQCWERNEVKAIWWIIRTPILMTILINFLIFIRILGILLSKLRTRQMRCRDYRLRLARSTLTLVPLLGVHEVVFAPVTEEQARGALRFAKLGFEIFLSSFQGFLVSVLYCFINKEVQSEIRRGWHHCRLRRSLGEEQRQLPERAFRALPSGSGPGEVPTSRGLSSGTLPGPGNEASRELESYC
The test is described as follows: HSA modulated binding assay, GIP receptor. The following applies: binding with 2% HSA to binding with 0% HSA.

Where [2] appears, read: liver Galectin-3, histological quantitative assessment.
Setting [3] is: liver alpha-smooth muscle actin, histological quantitative assessment.

Chain of GLP-1 receptor (P43220 24-463): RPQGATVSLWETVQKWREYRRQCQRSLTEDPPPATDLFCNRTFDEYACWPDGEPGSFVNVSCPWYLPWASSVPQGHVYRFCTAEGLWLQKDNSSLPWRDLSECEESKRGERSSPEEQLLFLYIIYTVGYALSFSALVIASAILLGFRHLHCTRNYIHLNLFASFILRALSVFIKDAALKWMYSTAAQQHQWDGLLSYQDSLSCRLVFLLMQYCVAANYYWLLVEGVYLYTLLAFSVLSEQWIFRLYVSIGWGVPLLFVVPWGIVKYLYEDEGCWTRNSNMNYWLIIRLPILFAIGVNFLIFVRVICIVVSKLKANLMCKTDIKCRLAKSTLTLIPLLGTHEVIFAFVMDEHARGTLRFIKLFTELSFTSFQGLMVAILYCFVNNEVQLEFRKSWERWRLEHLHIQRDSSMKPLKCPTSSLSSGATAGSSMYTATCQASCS

Turning to `CC[C@H](C)[C@H](NC(=O)[C@H](CC(C)C)NC(=O)[C@H](Cc1c[nH]c2ccccc12)NC(=O)[C@H](CCC(N)=O)NC(=O)[C@@H](NC(=O)[C@H](Cc1ccccc1)NC(=O)[C@H](C)NC(=O)[C@H](CCCCNC(=O)COCCOCCNC(=O)COCCOCCNC(=O)CC[C@H](NC(=O)CCCCCCCCCCCCCCCCCCP(=O)(O)OCc1ccccc1)P(=O)(O)O)NC(=O)[C@H](CCC(N)=O)NC(=O)[C@H](C)NC(=O)[C@@H](NC(=O)[C@H](CCCCN)NC(=O)[C@H](CC(=O)O)NC(=O)[C@H](CC(C)C)NC(=O)C(C)(C)NC(=O)[C@@H](NC(=O)[C@H](CO)NC(=O)[C@H](Cc1ccc(O)cc1)NC(=O)[C@H](CC(=O)O)NC(=O)[C@H](CO)NC(=O)[C@@H](NC(=O)[C@H](Cc1ccccc1)NC(=O)[C@@H](NC(=O)CNC(=O)[C@H](CCC(=O)O)NC(=O)C(C)(C)NC(=O)[C@@H](N)Cc1ccc(O)cc1)[C@@H](C)O)[C@@H](C)O)[C@@H](C)CC)[C@@H](C)CC)C(C)C)C(=O)N[C@@H](C)C(=O)NCC(=O)NCC(=O)N1CCC[C@H]1C(=O)N[C@@H](CO)C(=O)N[C@@H](CO)C(=O)NCC(=O)N[C@@H](C)C(=O)N1CCC[C@H]1C(=O)N1CCC[C@H]1C(=O)N1CCC[C@H]1C(=O)N[C@@H](CO)C(N)=O` [Compound 12], in test [1], the “liver Galectin-3 compared to tirzepatide or vehicle (in words)” value is “lower relative and total liver Galectin-3 as compared to administration of tirzepatide or vehicle alone”; the “liver alpha-smooth muscle actin compared to tirzepatide (in words)” value is “lower relative and total liver alpha-smooth muscle actin as compared to administration of tirzepatide”; the “liver triglycerides compared to tirzepatide or vehicle (in words)” value is “lower relative and total liver triglycerides as compared to administration of tirzepatide or vehicle alone”. In test [1] (setting [2]), the “Gal-3 Relative” value was determined as 5.7 ± 0.5 percent fractional area and the “Gal-3 Total” value is 113 ± 10 mg. For the same compound, in test [1] (setting [3]), the “α-SMA Relative” value stood at 4.4 ± 0.6 percent fractional area and the “α-SMA Total” value came to 84 ± 8 mg. In addition, in test [1] (liver triglycerides), the “TG Relative” value is 35 ± 3 mg per/g liver and the “TG Total” value came to 63 ± 5 mg per/liver. Further, the “GLP-1 receptor Ratio of HSA/No HSA” value at GLP-1 receptor came out at 5.26. In addition, the “GIP receptor Ratio of HSA/No HSA” value at GIP receptor was found to be 1.70.

The values above are taken from patent US20260097126A1, “PHARMACEUTICAL FORMULATIONS AND METHODS FOR THE TREATMENT OF METABOLIC AND LIVER DISORDERS” (priority 2022, published 2026).
